Laboratory results reported in PubChem BioAssay AID449750 (Broad Institute, 2010).
Activity calls are given as the source filed them. The rule behind the calls is not given here.

test: non-covalent RecA intein splicing inhibitors, dose response, biochemical, cell-free, fluorescence, secondary screen (AID 449750)

Row | SMILES | AC50
1 | CCn1nc(/C=C/c2ccccc2)nc2c(=O)n(C)c(=O)nc1-2 | 0.0666 µM
2 | O=C(CCl)Nc1cccc(Oc2ccccc2)c1 | 6.15 µM
3 | CCc1ccc(C2C(C#N)=C(N)C(C#N)(C#N)C3=CCC(C(C)(C)C)CC32)cc1 (stereo not drawn) | > 38 µM (inactive)
4 | COc1cc(/C=C2/C(=O)N(c3ccccc3)N=C2C)ccc1OS(=O)(=O)c1ccccc1 | 3.34 µM
5 | CCOC(=O)CSc1n[nH]c(NC(=O)c2cccc(C(F)(F)F)c2)n1 | > 38 µM (inactive)
6 | CC(=O)Nc1ccccc1NC(=O)C/C(C)=N/NC(=O)C(=O)N1CCCCC1 | > 38 µM (inactive)
7 | O=C(N/N=C\c1ccc(-c2ccccc2[N+](=O)[O-])o1)C1COc2ccccc2O1 (stereo not drawn) | 8.06 µM
8 | CCCCNC(=O)c1c(N)n(Cc2ccc3c(c2)OCO3)c2nc3ccccc3nc12 | 7.9 µM
9 | CCCSc1cc(NCCOC(=O)CCC)c([N+](=O)[O-])c2nonc12 | > 38 µM (inactive)
10 | COc1ccc(OC)c(NC(=O)Cc2ccc(NC3=NC4CS(=O)(=O)CC4S3)cc2)c1 (stereo not drawn) | > 38 µM (inactive)
11 | COc1ccc(N(C(=O)CCl)C(C(=O)NC2CCCCC2)c2cccnc2)cc1 (stereo not drawn) | 3.87 µM
12 | CC(C)CCn1c(Sc2nc3ccccc3o2)nc2c1c(=O)[nH]c(=O)n2C | 5.08 µM
13 | CC(=O)N1C(=O)C2(C(C#N)=C(N)Oc3c2c(C)nn3-c2ccccc2)c2ccccc21 (stereo not drawn) | 28 µM
14 | Cc1cccc(CS(=O)(=O)c2ncc(Cl)c(C(=O)Nc3ccc(F)cc3)n2)c1 | > 38 µM (inactive)
15 | CN1c2ccccc2C(C)(C)C12C=Nc1c(ccc3ccccc13)O2 (stereo not drawn) | 21.2 µM
16 | OCC[n+]1c2ccccc2nc2ccc(N3CCOCC3)cc21 | 26.5 µM
17 | COc1cc(C=C(c2nc3ccccc3s2)c2nc3ccccc3s2)ccc1O | 3.26 µM
18 | Cc1ccc(S(=O)(=O)c2c(N)n(CCC(C)C)c3nc4ccccc4nc23)cc1 | 5.3 µM
19 | COc1cc(/C=C2/C(=O)N(c3ccc(Br)cc3)N=C2C)cc(OC)c1OC | 7.07 µM
20 | CCOCC(=O)NCc1ccc2c(c1)cc(C)n2C | > 38 µM (inactive)
21 | Cc1oc2c(c1C(=O)N1CCOCC1)C(=O)c1ccccc1C2=O | 9.55 µM
22 | CCCCC(O)(CCCC)C(=O)NN(C(=O)CCl)c1ccccc1 | 6.32 µM
23 | COC(=O)c1ccccc1Sc1ncnc2onc(C)c12 | > 38 µM (inactive)
24 | O=[N+]([O-])c1ccc(N2CCOCC2)c2ccncc12 | > 38 µM (inactive)
25 | CN(C)C(=S)N=Nc1[nH]c2ccccc2c1O | > 38 µM (inactive)
26 | CC(=O)c1cc(O)c2ccccc2c1O | 13.3 µM
27 | O=C1c2ccccc2C(=O)c2c1ncn2-c1ccccc1 | > 38 µM (inactive)

Row | SMILES | AC50
28 | FC(F)(F)c1nnc(-c2ccccc2)nc1Oc1ccc(Cl)cc1Cl | > 38 µM (inactive)
29 | O=C1C=C(NCCN2CCOCC2)C(=O)c2cnccc21 | 1.54 µM
30 | Cc1ccc(Sc2ccc(NC(=O)CCl)cc2)c(C)c1 | 1.18 µM
31 | CC1=NN(c2ccccc2)C(=O)/C1=C/c1ccc(Cl)cc1 | 4.65 µM
32 | CCOc1cc(C(c2c(C)[nH][nH]c2=O)c2c(C)[nH][nH]c2=O)cc([N+](=O)[O-])c1O | 13.1 µM
33 | CCOc1cc(/C=C(\C#N)C(=O)Nc2cccc(C(=O)O)c2)cc(Br)c1OC(=O)c1ccc(OC)cc1 | 8.34 µM
34 | COc1ccc2ccc3c(c2c1)N=CC1(O3)N(C)c2ccccc2C1(C)C (stereo not drawn) | 4.49 µM
35 | Nc1c(N2CCCC2)cc(Cl)c2nonc12 | 4.13 µM
36 | COc1ccc(C2=NN(c3nc(C)cc(C)n3)C(=O)C2)cc1 | 5.75 µM
37 | N#Cc1cc(-c2ccccc2)nc(Oc2ccccc2)n1 | > 38 µM (inactive)
38 | CC(C)(C)c1cc[n+](C2=C([O-])c3ccccc3C(=O)/C2=N\S(=O)(=O)c2cccs2)cc1 | 8.96 µM
39 | Cc1cc(Sc2nnc(/N=C/N(C)C)s2)c2ccccc2n1 | > 38 µM (inactive)
40 | COc1ccc(/C=C(/C#N)C(=O)Nc2ccc(O)cc2)cc1C(=O)O | > 38 µM (inactive)
41 | CCOc1ccc(CN2CCN(CC3=Cc4cccc(OC)c4OC3)CC2CCO)cc1 (stereo not drawn) | > 38 µM (inactive)
42 | O=c1[nH]c(Nc2ccc(F)cc2)cc2ccccc12 | 2.58 µM
43 | COc1ccc(C(=O)Nc2ccncc2)cc1[N+](=O)[O-] | > 38 µM (inactive)
44 | CCN(CC)CCNC(=O)c1ccc2c(c1NCCO)C(=O)c1ccccc1C2=O | 13.1 µM
45 | Cc1ccc2c(c1)c1c(n2CC(O)CN2CCCCCC2)CCCC1 (stereo not drawn) | > 38 µM (inactive)
46 | Clc1ccc(-c2nnc(Sc3nc4ccccc4o3)c3ccccc23)cc1 | 7.15 µM
47 | Cc1ccc(-n2nc(C)c3c2OC(N)=C(C#N)C3c2ccc(F)cc2)cc1 (stereo not drawn) | 26.5 µM
48 | CC(OC(=O)c1cc(O)c2ccccc2c1O)C(=O)Nc1ccc(C(N)=O)cc1 (stereo not drawn) | 10.1 µM
49 | Cc1c(C#N)c(NC(=O)CCl)n(Cc2ccc(F)cc2)c1C | 3.69 µM
50 | CC(=O)NC1N=C(C)N(c2ccccc2)C1=O (stereo not drawn) | 33.7 µM
51 | O=C1/C(=C/c2ccc3c(c2)OCO3)CCC/C1=C\c1ccc2c(c1)OCO2 | > 38 µM (inactive)
52 | CC(C)c1nnc(NC(=O)c2nc(S(=O)(=O)Cc3ccccc3)ncc2Cl)s1 | 15 µM
53 | O=C(CCl)NN=C(c1ccccc1)c1ccccc1 | 6.37 µM
